Assay [1] relates to passive EAE. Put plainly: Passive EAE, transfer of PLP-reactive T cells. It is filed as in vivo, mice. The note with it: 2 μg HF daily i.p. The source says: (§1) The ability of systemic HF treatment to block IL-17 expression and associated autoimmune inflammation in vivo was examined using two distinct models of experimental autoimmune encephalomyelitis (EAE). […] The second model, a passive model of EAE induction, is initiated by the transfer of myelin proteolipid protein (PLP)-reactive T cells into lymphopenic hosts.
Passive EAE was induced by intravenous transfer of purified CD3^+ splenic T cells isolated from PLP TCR transgenic B10.S mice into syngeneic RAG2-deficient mice (3×10^6 cells/mouse) (Waldner et al., J. Clin. Invest. 113(7):990-997, 2004).
Mice were injected daily with HF (2 μg/mouse) or vehicle control (DMSO) i.p. Clinical signs of EAE were assessed according to the following score: 0, no signs of disease; 1, flaccid tail; 2, weak gait/hind limb paresis; 3, hind limb paralysis; 4, tetraplegia; 5, moribund. Cytokine production during EAE was determined either in peripheral T cells isolated from spleen or lymph nodes of mice prior to disease onset (day 6-10) or in mononuclear cells isolated from the brain and spinal cords of mice with severe disease (clinical score ≧2) between days 15-20. Briefly, splenocytes were stained for intracellular cytokines following erythrocyte lysis with ammonium chloride buffer. T cells were isolated from brain and spinal cords of mice with active EAE following perfusion with cold PBS. […]

Assay [2] relates to eIF2α phosphorylation and AAR-associated transcripts (Asns, Gpt2, eIF4Ebp1) in splenocytes. Kind of assay: AAR activation in splenocytes of HF-injected mice. In kind it is in vivo. The note with it: i.p. 2.5 mg HF; spleens harvested 6 hours post injection. The protocol:
FIG. 18F, left panel, depicts western blot analysis of protein from cells of wild-type mice injected i.p. with vehicle (DMSO) or 2.5 mg HF. Spleens were harvested 6 hours post injection, red blood cells were removed by NH4Cl lysis buffer and immunoblotting for phosphorylated or total eIF2a was performed on whole cell extracts. FIG. 20F, right panel is a graph depicting levels of AAR-associated gene expression (Asns, Gpt2, eIF4Ebp1) analyzed by quantitative real-time PCR using cDNA from splenocytes of mice treated with DMSO or HF as above. Expression of AAR-associated transcripts were normalized to Hprt levels and data are presented as mean relative expression from duplicate samples±SD. All data represent 2-3 similar experiments.
HF-mediated protection from adjuvant-driven EAE was accompanied by a reduction in T cell-derived IL-17-expression, both in peripheral lymph nodes prior to disease onset and in CNS tissue during active disease (FIG. 18E), as well as an overall reduction in CD4^+ T cell infiltrates into the CNS (FIG. 19).

Assay [3] relates to human CD4+ T cells (CD4+ CD45RO+). Put plainly: IL-17 and IFNγ expression by human memory CD4+ T cells co-cultured with monocytes. The note with it: 100 nM HF; expanded for 6 days. It is filed as cell-based. The protocol:
FIG. 5F is a set of FACS analyses of purified primary human memory T cells (CD4^+ CD45RO^+) activated in co-culture with CD14^+ monocytes and treated with DMSO, 100 nM HF or 100 nM MAZ1310. T cells were expanded for 6 days and intracellular cytokine expression was determined following restimulation with PMA plus ionomycin.
In light of reports that IL-17 expression may be differentially regulated in murine versus human T cells (Manel et al., Nat. Immunol. 9:641, 2008; Wilson et al., Nat. Immunol. 8:950, 2007; Acosta-Rodriguez et al., Nat. Immunol. 8:942, 2007), HF modulation of IL-17 expression by human CD4^+ T cells was investigated. […] Therefore, HF selectively limits IL-17 expression in both human and mouse T cells.
Primary murine T and B cells were purified by cell sorting. CD4^+ CD25^− T cells were positively selected using CD4 dynabeads and detachabeads (Dynal, Oslo, Norway) per manufacturers instructions followed by nTreg depletion using a CD25 microbead kit (Miltenyi biotech, Auburn, Calif.). Naïve (CD4^+ CD62Lhi CD44lo Foxp3gfp- or CD4^+ CD62Lhi CD44lo CD25^−) T cells were purified from Foxp3gfp or Foxp3ko mice, respectively, by FACS sorting. […] Resting human CD4^+ T cells were isolated from PBMC of healthy human donors using Dynal CD4 Positive Isolation Kit (Invitrogen, Carlsbad, Calif.) as previously described (Sundrud et al., Blood 106:3440, 2005). […]

Assay [4] deals with adjuvant-driven EAE. Kind of assay: Adjuvant-driven experimental autoimmune encephalomyelitis (EAE), MOG33-55 immunization. In kind it is in vivo, mice.
Description: as §1
Adjuvant-driven EAE was induced in 8 week-old wild-type B6 mice purchased from Charles River laboratories (Kingston, N.Y.) by subcutaneous injection of […] peptide emulsified in Incomplete Freund's Adjuvant (IFA) plus 5 mg/ml heat-killed M. tuburculosis (BD Biosciences) in both dorsal flanks as described in Veldhoen et al. (Nat. Immunol. 7(11):1151-1156, 2006).
Mice were injected daily with HF (2 μg/mouse) or vehicle control (DMSO) i.p. Clinical signs of EAE were assessed according to the following score: 0, no signs of disease; 1, flaccid tail; 2, weak gait/hind limb paresis; 3, hind limb paralysis; 4, tetraplegia; 5, moribund. Cytokine production during EAE was determined either in peripheral T cells isolated from spleen or lymph nodes of mice prior to disease onset (day 6-10) or in mononuclear cells isolated from the brain and spinal cords of mice with severe disease (clinical score ≧2) between days 15-20. Briefly, splenocytes were stained for intracellular cytokines following erythrocyte lysis with ammonium chloride buffer. T cells were isolated from brain and spinal cords of mice with active EAE following perfusion with cold PBS. Minced CNS tissue was digested with liberase C1 (0.33 mg/ml, Roche Diagnostics) or collagenase D (10 mg/ml, Roche Diagnostics) at 37° C. for 30-45 minutes. Cell suspensions were passed through 70 μm cell strainers (VWR) and fractionated by 70%/30% Percoll gradient centrifugation. Mononuclear cells were collected from the interphase, washed, and used for intracellular cytokine analysis.

Assay [5] relates to Th17 differentiation of CD4+ CD25− T cells. Kind of assay: Th17 differentiation of CD4+ CD25− T cells (IL-17+ IFNγ− cells, intracellular cytokine staining).
Description: Purified CD4^+ CD25^− T cells were activated in vitro as previously described (Djuretic et al., Nat. Immunol. 8:145, 2007) using 0.3 μg/ml hamster anti-mouse CD3 (clone 145-2C11) (ATCC, Manassas, Va.) and 0.5 μg/ml hamster anti-mouse CD28 (BD Pharmingen, San Jose, Calif.). Activated cell cultures were differentiated using the following combinations of cytokines and antibodies: iTreg—recombinant human TGFβ1 (3 ng/ml—R&D systems, Minneapolis, Minn.), Th17-TGFβ1 (3 ng/ml) plus recombinant mouse IL-6 (30 ng/ml—R&D systems). […] Human IL-2 supernatant (National Cancer Institute) was used in culture at 0.01 U/ml and was added at 48 hours-post activation when T cells were split into tissue culture wells lacking CD3 and CD28 antibodies, with the exception of Th17 cultures that were maintained in the absence of exogenous IL-2. […] All reagents (see below) were added at the time of T cell activation and again at 48 hours post activation unless indicated otherwise.
For detection of intracellular cytokines in murine cells, cultured T or B cells were stimulated with 10 nM PMA (Sigma) and 1 mM ionomycin (Sigma) for 4-5 hours in the presence of 10 mM brefeldin A (Sigma). Stimulated cells were harvested, washed with PBS and fixed with PBS plus 4% paraformaldehyde at room temperature for 20 minutes. Cells were then washed with PBS, permeabilized with PBS supplemented with 1% BSA and 0.5% saponin (Sigma) at room temperature for 10 minutes before cytokine-specific antibodies were added and incubated with cells for an additional 20 minutes at room temperature. […] All stained cells were stored at 4° C. in PBS plus 1% paraformaldehyde prior to FACS analyses.
All cell surface staining was performed in FACS buffer (PBS/2% FBS/0.1% NaN3) and antibodies were incubated with cells on ice for 20-30 minutes. Cells were washed with FACS buffer and fixed with FACS buffer plus 1% paraformaldehyde prior to data acquisition.

`O=C(CC1NCCCC1O)Cn1cnc2cc(Br)c(Cl)cc2c1=O` (stereo not shown) [Compound 1, 7-bromo-6-chloro-3-[3-(3-hydroxy-2-piperidinyl)-2-oxopropyl]-4(3H)-quinazolinone]: in assay [1], the “EAE disease symptoms, passive model” value is “developed disease symptoms with kinetics and severity similar to control treated animals”. The “eIF2α phosphorylation and AAR-associated transcripts in splenocytes ex vivo” value in assay [2] was “increased eIF2α phosphorylation and expression of AAR-associated transcripts”. Also, in assay [3], the “IFNγ expression by human T cells” value was “essentially unaffected”; the “IL-17 expression by human T cells” value was “greatly reduced both the percentage of human T cells expressing IL-17 and the amount of IL-17 produced”. Besides, the “IL-17 and IFNγ expression in T cells of lymph nodes and CNS” value in assay [4] (2 μg HF daily i.p.) is “impaired IL-17 production but did not affect IFNγ expression”. The “EAE disease severity and frequency of onset” value in assay [4] (2 μg HF daily, ˜0.1 mg/kg, i.p.) is “significantly reduced both the severity of adjuvant-driven EAE disease and frequency of disease onset”. Moreover, the “EAE, HF not introduced until day 10 following immunization” value in assay [4] (treatment from day 10) is listed as “controls autoimmune inflammation even after inflammatory pathogenesis is evident”. The “EAE, HF injection terminated at day 10 following immunization” value in assay [4] (treatment until day 10) was “exerts a protective effect that extends well beyond the time of treatment”. The “rescue of inhibited Th17 differentiation by added amino acids” value in assay [5] (10 nM halofuginone, 1 mM of the indicated amino acids) is “Proline, and no other added amino acid, rescues the inhibition of Th17 differentiation”. Moreover, the IC50 in assay [5] (Mus musculus, T-cell, 96 h, read-out: IC50, Th17 differentiation) came out at 3.6 nM.

Values taken from patent publication US9284297B2, “Halofuginone analogs for inhibition of tRNA synthetases and uses thereof” (President and Fellows of Harvard College, priority 2008, dated 2016).
